Converted amounts (≈) assume the structure as drawn. “And” between values parts separate entries of the source, which are not always exact repeats. Identical values can stand only once. Like-named read-outs stand apart in the source and are kept apart here.
Columns and labels:
[1] = cited from earlier work; for LogS(mol/L): SC2-2 dataset (Second Solubility Challenge, loose subset), aqueous solubility; for Class: SC2-2 dataset, aqueous solubility class 0-6
[2] = Saturation shake-flask aqueous solubility, gravimetric determination; details: for Experimental Class: European Pharmacopoeia solubility class from the experimental solubility; for solubility at 48 h / solubility thermodynamic at 48 h: water, 25 °C, thermodynamic from solid; for solubility at 48 h: Experimental Log S; for solubility thermodynamic at 48 h: water (saturated aqueous solution)
Procedure: Excess solid drug was added to a vial to prepare supersaturated aqueous solutions. The vial was placed in a constant temperature mixer (Titan Technology, SD2‐100) at 25 °C and shaken for 48 h at a speed of 500 rpm. […] After equilibration, the solution was centrifugated at room temperature at 8000 rpm, and the supernatant was collected. The concentration of the supernatant was determined using the gravimetric method. A measured volume of the supernatant (e.g. 1 mL) was transferred to a pre‐weighted empty vial, dried in a vacuum oven at 70 °C, and re‐weighed. The difference between the initial and final weights represents the drug content in the saturated solution. Each compound was tested in triplicate to ensure accuracy.

[3] = cited from earlier work; for LogS(mol/L): SC2-1 dataset (Second Solubility Challenge, tight subset), aqueous solubility; for Class: SC2-1 dataset, aqueous solubility class 0-6
[4] = shaken 48 h, triplicate, Log S = base-10 logarithm of moles per liter

| Structure (SMILES) | Class [1] | Experimental Log S ([2]; single replicate of triplicate) | Experimental S ([2]; single replicate of triplicate) | LogS(mol/L) [3] | Class [3] | also measured |
| --- | --- | --- | --- | --- | --- | --- |
| CC(C)C[C@H]1C(=O)N2CCC[C@H]2[C@]2(O)O[C@](NC(=O)[C@@H]3C=C4c5cccc6[nH]c(Br)c(c56)C[C@H]4N(C)C3)(C(C)C)C(=O)N12 | 6 (Practically insoluble or insoluble (6)) |  |  |  |  | LogS(mol/L) [1]: -5.5 mol/L |
| O=c1[nH]cnc2c1ncn2[C@H]1CC[C@@H](CO)O1 [O=c1[nH]cnc2c1ncn2[C@H]1CC[C@@H](CO)O1] | 3 (Sparingly soluble (3)) |  |  |  |  |  |
| Cc1cc(=O)oc2cc(O[C@@H]3O[C@H](CO)[C@@H](O)[C@H](O)[C@H]3O)ccc12 [4-methylumbelliferyl β-D-glucoside] |  | -1.8647 and -1.9030 and -1.8898 | 4.6200 and 4.2300 and 4.3600 |  |  | Experimental Log S ([2]; averaged over triplicate): -1.8858; Experimental S ([2]; averaged over triplicate): 4.4033 |
| O=C1[C@H](CC[C@H](O)c2ccc(F)cc2)[C@@H](c2ccc(O)cc2)N1c1ccc(F)cc1 | 6 (Practically insoluble or insoluble (6)) |  |  |  |  | LogS(mol/L) [1]: -4.94 mol/L |
| N[C@@H](Cc1ccc(I)cc1)C(=O)O [4-Iodo-L-phenylalanine] |  | -2.6716 and -2.9727 and -2.5832 | 0.6200 and 0.3100 and 0.7600 |  |  | Experimental Log S ([2]; averaged over triplicate): -2.7425; Experimental S ([2]; averaged over triplicate): 0.5633 |
| CC(C)NCC(O)COc1ccc(COCCOC(C)C)cc1 (stereo not shown) [CC(C)NCC(O)COc1ccc(COCCOC(C)C)cc1] | 4 (Slightly soluble (4)) |  |  |  |  | LogS(mol/L) [1]: -2.09 mol/L |
| Clc1ccc(COC(Cn2ccnc2)c2ccc(Cl)cc2Cl)c(Cl)c1 (stereo not shown) | 6 (Practically insoluble or insoluble (6)) |  |  |  |  | LogS(mol/L) [1]: -5.82 mol/L |
| c1ccc2[nH]c(-c3cscn3)nc2c1 [c1ccc2[nH]c(-c3cscn3)nc2c1] | 6 (Practically insoluble or insoluble (6)) |  |  |  |  |  |
| Nc1nc2c(c(=O)[nH]1)CC=N2 [7‐Deazaguanine] |  |  |  |  |  | Experimental Class [2]: 4 (Slightly soluble (4)); solubility at 48 h [2, 4]: 16.6 mM (≈ 2490 µg/mL) |
| CC[C@]1(c2ccccc2)OC[C@H]([C@@H]2CCCCN2)O1 | 4 (Slightly soluble (4)) |  |  |  |  | LogS(mol/L) [1]: -1.96 mol/L |
| CC(=C(CCO)SSC(CCO)=C(C)N(C=O)Cc1cnc(C)nc1N)N(C=O)Cc1cnc(C)nc1N [Thiamine disulfide] |  | -2.3811 and -2.3222 | 1.9700 and 2.3400 and 2.6800 |  |  | Experimental Class [2]: 4 (Slightly soluble (4)); solubility thermodynamic at 48 h [2]: 2330 µg/mL (≈ 4.14 mM); solubility at 48 h ([2]; averaged over triplicate): 4.11 mM (≈ 2310 µg/mL); solubility at 48 h [2, 4]: 4.11 mM (≈ 2310 µg/mL); solubility at 48 h ([2]; single replicate of triplicate): 3.5 mM (≈ 1970 µg/mL) |
| COc1cc(/C=C/C(=O)CC(=O)/C=C/c2ccc(O)c(OC)c2)ccc1O | 6 (Practically insoluble or insoluble (6)) |  |  |  |  | LogS(mol/L) [1]: -5.36 mol/L |
| OC[C@@H](O)CN1CCN(c2ccccc2)CC1 [Levodropropizine, reference compound] |  | -0.8427 | 34.3300 and 33.9500 |  |  | Experimental Class [2]: 2 (Soluble (2)); solubility thermodynamic at 48 h [2]: 34200 µg/mL (≈ 145 mM); solubility at 48 h ([2]; averaged over triplicate): 145 mM (≈ 34200 µg/mL); solubility at 48 h [2, 4]: 145 mM (≈ 34200 µg/mL); solubility at 48 h ([2]; single replicate of triplicate): 145 mM (≈ 34300 µg/mL) |
| CC(=O)SCC(Cc1ccccc1)C(=O)NCC(=O)OCc1ccccc1 (stereo not shown) [Racecadotril, reference compound] |  | -4.1710 and -3.8226 and -3.9232 | 0.0260 and 0.0580 and 0.0460 |  |  | Experimental Class [2]: 6 (Practically insoluble or insoluble (6)); solubility thermodynamic at 48 h [2]: 43.3 µg/mL (≈ 0.112 mM); solubility at 48 h ([2]; averaged over triplicate): 0.107 mM (≈ 41.1 µg/mL); solubility at 48 h [2, 4]: 0.107 mM (≈ 41.1 µg/mL) |
| Nc1ccc(N=Nc2ccccc2)c(N)n1 [Nc1ccc(N=Nc2ccccc2)c(N)n1] |  |  |  | -4.02 mol/L | 6 (Practically insoluble or insoluble (6)) |  |
| COc1cc(N)c(Cl)cc1C(=O)NC1CCN(CCCOc2ccc(F)cc2)CC1OC (stereo not shown) |  |  |  | -6.78 mol/L | 6 (Practically insoluble or insoluble (6)) |  |
| Cc1c(O)cccc1C(=O)N[C@@H](CSc1ccccc1)[C@H](O)CN1C[C@H]2CCCC[C@H]2C[C@H]1C(=O)NC(C)(C)C |  |  |  | -6.21 mol/L | 6 (Practically insoluble or insoluble (6)) |  |
| CC(=O)OCC(=O)[C@@]1(OC(C)=O)[C@@H](C)C[C@H]2[C@@H]3C[C@H](F)C4=CC(=O)C=C[C@]4(C)[C@@]3(F)[C@@H](O)C[C@@]21C |  |  |  | -4.82 mol/L | 6 (Practically insoluble or insoluble (6)) |  |
| CC1=C(C(=O)O)N2C(=O)[C@@H](NC(=O)[C@H](N)C3=CCC=CC3)[C@H]2SC1 |  |  |  | -1.18 mol/L | 3 (Sparingly soluble (3)) |  |
| COc1cc([C@@H]2c3cc4c(cc3[C@@H](O[C@@H]3O[C@@H]5CO[C@@H](C)O[C@H]5[C@H](O)[C@H]3O)C3COC(=O)[C@@H]32)OCO4)cc(OC)c1O (stereo partly shown) |  |  |  | -3.6 mol/L | 5 (Very slightly soluble (5)) |  |
| Nc1nc2c(c(=O)[nH]1)CC=N2 [7-Deazaguanine] |  | -1.8036 and -1.6879 | 2.1200 and 2.3600 and 3.0800 |  |  | solubility thermodynamic at 48 h [2]: 2520 µg/mL (≈ 16.8 mM); solubility at 48 h ([2]; averaged over triplicate): 16.6 mM (≈ 2490 µg/mL); solubility at 48 h ([2]; single replicate of triplicate): 14.1 mM (≈ 2120 µg/mL) |
| OC[C@H]1O[C@@H](n2cnc3c(O)ncnc32)C[C@@H]1O [Deoxyinosine] |  | -1.3814 and -1.3992 | 10.1800 and 10.4800 and 10.0600 |  |  | Experimental Class [2]: 3 (Sparingly soluble (3)); solubility thermodynamic at 48 h [2]: 10200 µg/mL (≈ 40.6 mM); solubility at 48 h ([2]; averaged over triplicate): 40.6 mM (≈ 10200 µg/mL); solubility at 48 h [2, 4]: 40.6 mM (≈ 10200 µg/mL); solubility at 48 h ([2]; single replicate of triplicate): 40.4 mM (≈ 10200 µg/mL) |
| O=C1CN=C(c2ccccn2)c2cc(Br)ccc2N1 [O=C1CN=C(c2ccccn2)c2cc(Br)ccc2N1] |  |  |  | -3.39 mol/L | 5 (Very slightly soluble (5)) |  |

Reference: publication PMC12697872, “Rethinking the AI Paradigm for Solubility Prediction of Drug‑Like Compounds with Dual‐Perspective Modeling and Experimental Validation” (Advanced Science, 2025)
